Measured values from ChEMBL document CHEMBL5370684, “Small-Molecule Heterocyclic Compounds: Gq-Biased Agonists for the 5-HT2A Receptor in Neuropsychiatric Treatment” (ACS Med Chem Lett, 2023).
Values belong to the compound of their own block, whether it stands above or below them.

Experiments:
[1] = target: T1, 5-hydroxytryptamine receptor 2A (Homo sapiens, UniProt P28223); test: Agonist activity at RLuc-fused 5-HT2A (unknown origin) expressed in HEK293T cells co-transfected with mVenus-fused beta arrestin-2/GRK2 assessed as beta arrestin-2 recruitment at 0.1 to 10 uM incubated for 30 mins using coelenterazine h as a substrate by BRET assay relative to control; format: functional, cell-based; conditions: dose 0.1-10 µM
T1 sequence (P28223 whole entry, the tested form may be a part): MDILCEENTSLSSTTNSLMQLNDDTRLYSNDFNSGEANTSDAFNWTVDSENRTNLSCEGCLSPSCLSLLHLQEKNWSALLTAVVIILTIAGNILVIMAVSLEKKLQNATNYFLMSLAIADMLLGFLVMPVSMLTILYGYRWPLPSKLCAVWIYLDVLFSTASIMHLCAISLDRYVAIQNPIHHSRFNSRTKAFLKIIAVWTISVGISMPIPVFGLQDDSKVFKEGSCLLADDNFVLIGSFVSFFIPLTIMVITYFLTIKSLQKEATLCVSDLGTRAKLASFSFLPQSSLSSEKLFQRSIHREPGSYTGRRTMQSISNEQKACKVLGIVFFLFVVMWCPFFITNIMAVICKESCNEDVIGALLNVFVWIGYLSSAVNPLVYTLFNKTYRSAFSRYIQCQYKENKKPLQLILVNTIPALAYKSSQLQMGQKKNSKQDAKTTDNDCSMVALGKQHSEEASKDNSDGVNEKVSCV

[2] = target: T1, 5-hydroxytryptamine receptor 2A; test: Agonist activity at 5-HT2A (unknown origin) expressed in HEK293T cells co-transfected with RLuc-fused Galphaq/GFP2/Gy9/Gbeta3 assessed as Gaq hetero trimeric G protein activation at 0.1 to 10 uM incubated for 30 mins using coelenterazine 400a as a substrate by BRET assay relative to control; format: functional, cell-based; conditions: filed as agonist, dose 0.1-10 µM
[3] = target: T1, 5-hydroxytryptamine receptor 2A; test: Agonist activity at 5-HT2A (unknown origin) expressed in HEK293T cells co-transfected with RLuc-fused Galphaq/GFP2/Gy9/Gbeta3 assessed as Gaq hetero trimeric G protein activation incubated for 30 mins using coelenterazine 400a as a substrate by BRET assay; format: functional, cell-based
[4] = target: T1, 5-hydroxytryptamine receptor 2A; test: Agonist activity at RLuc-fused 5-HT2A (unknown origin) expressed in HEK293T cells co-transfected with mVenus-fused beta arrestin-2/GRK2 assessed as beta arrestin-2 recruitment incubated for 30 mins using coelenterazine h as a substrate by BRET assay; format: functional, cell-based
[5] = target: T1, 5-hydroxytryptamine receptor 2A; test: Displacement of [3H]-LSD form 5-HT2A (unknown origin) expressed in Flp-In-T-Rex-293 membrane by Microbeta scintillation counting analysis; format: cell membranes

Structure (SMILES): Clc1ccc2[nH]nc(C3=CCCNC3)c2c1
Emax ([1]; filed as agonist): 97% | Emax [2]: 94.8%

Structure (SMILES): Fc1ccc2[nH]nc(C3=CCCNC3)c2c1
Emax ([1]; filed as agonist): 96% | Emax [2]: 88.3%

Structure (SMILES): CN1CCC=C(c2n[nH]c3c(Cl)ccc(F)c23)C1
Emax ([1]; filed as agonist): 50.9% | Emax [2]: 95.4%

Structure (SMILES): Fc1ccc(Cl)c2[nH]nc(C3=CCCNC3)c12
Emax ([1]; filed as agonist): 72.7% | Emax [2]: 106%

Structure (SMILES): Cc1ccnc2[nH]cc(C3=CCCN(C)C3)c12
Emax [1]: 38.9% | Emax [2]: 68.7%

Structure (SMILES): COc1cccc2[nH]cc(C3=CCCN(C)C3)c12
Emax ([1]; filed as agonist): 47.7% | Emax [2]: 91%

Structure (SMILES): CN1CCC=C(c2n[nH]c3cc(F)ccc23)C1
Emax [1]: 27% | Emax [2]: 47.1%

Structure (SMILES): Fc1ccc2c(C3=CCCNC3)n[nH]c2c1
Emax ([1]; filed as agonist): 59.4% | Emax [2]: 79.4%

Structure (SMILES): COc1cccc2[nH]nc(C3=CCCNC3)c12
Emax ([1]; filed as agonist): 75.9% | Emax [2]: 81.7%

Structure (SMILES): CN1CCC=C(c2n[nH]c3c(Cl)cc(F)cc23)C1
Emax ([1]; filed as agonist): 88.5% | Emax [2]: 91.4%

EC50 [3]: 874 nM | Emax [1]: 15.1% | Emax [2]: 59.6% | EC50 [4]: 358 nM | Ki [5]: 14 nM
Structure (SMILES): C1=C(c2c[nH]c3cccc(-c4ccccc4)c23)CNCC1

Structure (SMILES): Cc1cccc2[nH]cc(C3=CCCNC3)c12
Emax ([1]; filed as agonist): 42% | Emax [2]: 85.7%

Structure (SMILES): COc1cccc2[nH]cc(C3=CCCNC3)c12
Emax ([1]; filed as agonist): 51.8% | Emax [2]: 96.1%

Structure (SMILES): Clc1ccc2[nH]cc(C3=CCCNC3)c2c1
Emax ([1]; filed as agonist): 77.3% | Emax [2]: 102%

Structure (SMILES): CC(C)c1ccc2[nH]cc(C3=CCCNC3)c2c1
Emax [1]: 31.4% | Emax [2]: 58.8%

Structure (SMILES): COc1ccnc2[nH]cc(C3=CCCN(C)C3)c12
Emax [1]: 32.2% | Emax [2]: 67.1%

Structure (SMILES): CN1CCC=C(c2c[nH]c3c(Cl)c(F)ccc23)C1
Emax ([1]; filed as agonist): 56.5% | Emax [2]: 89.2%
